# According to ChEMBL document CHEMBL4334442, “Effects of Acetylshikonin on the Infection and Replication of Coxsackievirus A16 in Vitro and in Vivo” (J Nat Prod, 2019):
# The source made the active and inactive calls. The calls are words filed in the database; no cut-off is given here.
# Columns and labels:
# Coxsackievirus A16 [1] = assay: Antiviral activity against Coxsackievirus A16 TA271 infected in ICR mouse assessed as increase in inflammatory cell proliferation in spinal muscles at 0.08 uM/L preincubated with viral suspension for 2 hrs followed by intramuscular administration after 5 days post infection by H and E staining based histopathological analysis; assay type: functional
# Coxsackievirus A16 [2] = assay: Antiviral activity against Coxsackievirus A16 TA271 infected in RD cells at release stage assessed as cell fragmentation at 0.08 uM/L preincubated with cells for 1 hr followed by replacement of fresh medium containing compounds after 5 hrs post infection and further incubated for 16 hrs post infection by inverted microscopic analysis; assay type: functional, cell-based
# Coxsackievirus A16 [3] = assay: Antiviral activity against Coxsackievirus A16 TA271 infected in ICR mouse assessed as reduction in inflammatory cell infiltration in heart at 2 mg/kg, im after 5 days post infection by H and E staining based histopathological analysis; assay type: functional, organism-based
# Coxsackievirus A16 [4] = assay: Antiviral activity against Coxsackievirus A16 TA271 infected in ICR mouse assessed as reduction in muscle fiber breakage in hind limb muscle at 2 mg/kg, im after 5 days post infection by H and E staining based histopathological analysis; assay type: functional, organism-based
# Coxsackievirus A16 [5] = assay: Antiviral activity against Coxsackievirus A16 TA271 infected in ICR mouse assessed as reduction in viral load in hind limb muscle at 2 mg/kg, im after 3 to 5 days post infection by RT-PCR analysis; assay type: functional, organism-based
# Coxsackievirus A16 [6] = assay: Antiviral activity against Coxsackievirus A16 TA271 infected in ICR mouse assessed as reduction in viral load in spinal muscle at 2 mg/kg, im after 3 to 5 days post infection by RT-PCR analysis; assay type: functional, organism-based
# Coxsackievirus A16 [7] = assay: Antiviral activity against Coxsackievirus A16 TA271 infected in RD cells at preinfection stage assessed as cell detachment at 0.08 uM/L preincubated with cells for 3 hrs followed by viral infection and measured after 1 hr by inverted microscopic analysis; assay type: functional, cell-based
# Coxsackievirus A16 [8] = assay: Antiviral activity against Coxsackievirus A16 TA271 infected in ICR mouse assessed as mild alveolar wall thickening in hind limb muscle at 2 mg/kg, im after 5 days post infection by H and E staining based histopathological analysis; assay type: functional, organism-based
# [9] = Selectivity index, ratio of CC50 for cytotoxicity against human RD cells to EC50 for antiviral activity against Coxsackievirus A16 TA271 infected in human RD cells; assay type: toxicity, cell-based; conditions: read-out: Ratio CC50/EC50
# Coxsackievirus A16 [10] = assay: Antiviral activity against Coxsackievirus A16 TA271 infected in RD cells at release stage assessed as increase in intracytoplasmic granules at 0.08 uM/L preincubated with cells for 1 hr followed by replacement of fresh medium containing compounds after 5 hrs post infection and further incubated for 16 hrs post infection by inverted microscopic analysis; assay type: functional, cell-based
# Coxsackievirus A16 [11] = assay: Antiviral activity against Coxsackievirus A16 16038 infected in RD cells assessed as reduction in viral genome copies at 0.08 uM/L preincubated with viral suspension for 2 hrs followed by cell addition and measured at 24 hrs post infection by RT-PCR analysis; assay type: functional, cell-based
# Mus musculus = assay: Effect on IL-6 level in ICR mouse at 2 mg/kg, administered intramuscularly by ELISA; assay type: functional, organism-based
# Coxsackievirus A16 [12] = assay: Antiviral activity against Coxsackievirus A16 TA271 infected in RD cells assessed as log reduction in viral genome copies at 0.08 uM/L preincubated with viral suspension for 2 hrs followed by cell addition and measured at 24 hrs post infection by RT-PCR analysis; assay type: functional
# Coxsackievirus A16 [13] = assay: Antiviral activity against Coxsackievirus A16 TA271 infected in RD cells at replication stage assessed as appearance of rounded cells at 0.08 uM/L 1 hr post-infection viral inoculum was removed and cells incubated with medium containing compound and measured after 5 hrs by inverted microscopic analysis; assay type: functional, cell-based
# Coxsackievirus A16 [14] = assay: Antiviral activity against Coxsackievirus A16 TA271 infected in ICR mouse assessed as reduction in virus-induced IL-6 level at 2 mg/kg, im after 3 days post infection by ELISA; assay type: functional, organism-based
# [15] = Cytotoxicity against human RD cells assessed as reduction in cell viability after 12 hrs by CCK8 assay; assay type: cell-based
# Coxsackievirus A16 [16] = assay: Antiviral activity against Coxsackievirus A16 TA271 infected in RD cells at release stage assessed as appearance of cell shrinkage at 0.08 uM/L preincubated with cells for 1 hr followed by replacement of fresh medium containing compounds after 5 hrs post infection and further incubated for 16 hrs post infection by inverted microscopic analysis; assay type: functional, cell-based
# Coxsackievirus A16 [17] = assay: Antiviral activity against Coxsackievirus A16 TA271 infected in ICR mouse assessed as mild alveolar fibrosis in spinal muscle at 2 mg/kg, im after 5 days post infection by H and E staining based histopathological analysis; assay type: functional, organism-based
# Coxsackievirus A16 [18] = assay: Antiviral activity against Coxsackievirus A16 TA271 infected in RD cells at replication stage assessed as cell fragmentation at 0.08 uM/L 1 hr post-infection viral inoculum was removed and cells incubated with medium containing compound and measured after 5 hrs by inverted microscopic analysis; assay type: functional, cell-based
# Coxsackievirus A16 [19] = assay: Antiviral activity against Coxsackievirus A16 TA271 infected in RD cells at preinfection stage assessed as appearance of cell shrinkage at 0.08 uM/L preincubated with cells for 3 hrs followed by viral infection and measured after 1 hr by inverted microscopic analysis; assay type: functional, cell-based
# Coxsackievirus A16 [20] = assay: Antiviral activity against Coxsackievirus A16 TA271 infected in ICR mouse assessed as effect on virus-induced IL-6 level at 0.08 uM/L preincubated with viral suspension for 2 hrs followed by intramuscular administration after 3 days post infection by ELISA; assay type: functional
# Coxsackievirus A16 [21] = assay: Antiviral activity against Coxsackievirus A16 TA271 infected in ICR mouse assessed as mild alveolar wall thickening in heart at 2 mg/kg, im after 5 days post infection by H and E staining based histopathological analysis; assay type: functional, organism-based
# Coxsackievirus A16 [22] = assay: Antiviral activity against Coxsackievirus A16 TA271 infected in human RD cells assessed as inhibition of virus-induced cytopathic effect at 0.08 uM/L preincubated with viral suspension for 2 hrs followed by cell addition and measured after 24 hrs by CCK-8 assay relative to control; assay type: functional; conditions: Enterovirus A
# Coxsackievirus A16 [23] = assay: Antiviral activity against Coxsackievirus A16 TA271 infected in human RD cells assessed as inhibition of virus-induced cytopathic effect preincubated with viral suspension for 2 hrs followed by cell addition and measured after 24 hrs by CCK-8 assay; assay type: functional, cell-based
# Coxsackievirus A16 [24] = assay: Antiviral activity against Coxsackievirus A16 TA271 infected in ICR mouse assessed as reduction in virus-induced IFN-gamma level at 2 mg/kg, im after 3 days post infection by ELISA; assay type: functional, organism-based
# Coxsackievirus A16 [25] = assay: Antiviral activity against Coxsackievirus A16 TA271 infected in ICR mouse assessed as reduction in muscle fiber breakage in spinal muscle at 2 mg/kg, im after 5 days post infection by H and E staining based histopathological analysis; assay type: functional, organism-based
# Coxsackievirus A16 [26] = assay: Antiviral activity against Coxsackievirus A16 TA271 infected in RD cells at preinfection stage assessed as increase in intracytoplasmic granules at 0.08 uM/L preincubated with cells for 3 hrs followed by viral infection and measured after 1 hr by inverted microscopic analysis; assay type: functional, cell-based
# Coxsackievirus A16 [27] = assay: Antiviral activity against Coxsackievirus A16 TA271 infected in ICR mouse assessed as reduction in virus-induced IL-6 level at 0.08 uM/L preincubated with viral suspension for 2 hrs followed by intramuscular administration after 3 days post infection by ELISA; assay type: functional
# Coxsackievirus A16 [28] = assay: Antiviral activity against Coxsackievirus A16 TA271 infected in ICR mouse assessed as mild alveolar fibrosis in hind limb muscle at 2 mg/kg, im after 5 days post infection by H and E staining based histopathological analysis; assay type: functional, organism-based
smiles,measurement,setting,value
CC(=O)OC(CC=C(C)C)C1=CC(=O)c2c(O)ccc(O)c2C1=O (stereo not given),Activity,Coxsackievirus A16 [1],Active
same,Activity,Coxsackievirus A16 [2],inactive
same,Activity,Coxsackievirus A16 [3],Active
same,Activity,Coxsackievirus A16 [4],Active
same,Activity,Coxsackievirus A16 [5],Active
same,Activity,Coxsackievirus A16 [6],Active
same,Activity,Coxsackievirus A16 [7],inactive
same,Activity,Coxsackievirus A16 [8],Active
same,selectivity ratio,[9],235
same,Activity,Coxsackievirus A16 [10],inactive
same,Activity,Coxsackievirus A16 [11],Active
same,Activity,Mus musculus,inactive
same,LCK,Coxsackievirus A16 [12],>2
same,Activity,Coxsackievirus A16 [13],inactive
same,Activity,Coxsackievirus A16 [14],Active
same,CC50 at 12 h,[15],9.4 µM
same,Activity,Coxsackievirus A16 [16],inactive
same,Activity,Coxsackievirus A16 [17],Active
same,Activity,Coxsackievirus A16 [18],inactive
same,Activity,Coxsackievirus A16 [19],inactive
same,Activity,Coxsackievirus A16 [20],inactive
same,Activity,Coxsackievirus A16 [21],Active
same,inhibition at 0.08 µM,Coxsackievirus A16 [22],80%
same,Activity,Coxsackievirus A16 [23],Dose-dependent effect
same,EC50,Coxsackievirus A16 [23]; Enterovirus A,0.04 µM
same,Activity,Coxsackievirus A16 [24],Active
same,Activity,Coxsackievirus A16 [25],Active
same,Activity,Coxsackievirus A16 [26],inactive
same,Activity,Coxsackievirus A16 [27],Active
same,Activity,Coxsackievirus A16 [28],Active
